A short description of experiment [1]: Antiproliferative activity against VEGF-stimulated HUVEC cells assessed as reduction in cell viability at 0.5 nM preincubated for 1 hr followed by addition of VEGF measured after 72 hrs by MTT assay. It counts as functional. To be noted: Homo sapiens. On the technique in general: Tetrazolium assays rely on reduction of a dye to a coloured formazan, in cell work by metabolically active cells.

Experiment [2] in a line: Antiproliferative activity against VEGF-stimulated HUVEC cells assessed as reduction in cell viability at 2 nM preincubated for 1 hr followed by addition of VEGF measured after 72 hrs by MTT assay. The class given is functional. To be noted: Homo sapiens.

Structures are written as SMILES.

The inhibition is the drop in the measured response relative to a control, in per cent.

As for `O=C(NCCN1CCNC1=O)c1ccccc1Nc1ccc2c(/C=C/c3ccccn3)n[nH]c2c1`, the inhibition at 0.0005 µM in experiment [1] was determined as 5%. For the same molecule, the inhibition at 0.002 µM in experiment [2] worked out at 1%.
The matching figures for `CCN(CC)CCNC(=O)c1ccccc1Nc1ccc2c(/C=C/c3ccccn3)n[nH]c2c1`: 39% and 15%.
For `O=C(NOCC(=O)N1CCOCC1)c1ccccc1Nc1ccc2c(/C=C/c3ccccn3)n[nH]c2c1`, in that order: 15% and -1%.
For `O=C(NCCOc1ccccc1)c1ccccc1Nc1ccc2c(/C=C/c3ccccn3)n[nH]c2c1`, in that order: 16% and 73%.
Take `O=C(O)CNC(=O)c1ccccc1Nc1ccc2c(/C=C/c3ccccn3)n[nH]c2c1`: in experiment [1], the inhibition at 0.0005 µM is 8%. Moreover, in experiment [2], the inhibition at 0.002 µM stood at 23%.
For `CCC(C)CNC(=O)c1ccccc1Nc1ccc2c(/C=C/c3ccccn3)n[nH]c2c1` (centres undefined), in that order: 24% and 84%.
For `O=C(Nc1nnn[nH]1)c1ccccc1Nc1ccc2c(/C=C/c3ccccn3)n[nH]c2c1`, in that order: 21 to 39% and 18 to 64%.
For `CNC(=O)CNC(=O)c1ccccc1Nc1ccc2c(/C=C/c3ccccn3)n[nH]c2c1`, in that order: -1% and 26%.
Turning to `Cc1ccc(CNC(=O)c2ccccc2Nc2ccc3c(/C=C/c4ccccn4)n[nH]c3c2)cc1`, the inhibition at 0.0005 µM in experiment [1] amounted to 20%. The inhibition at 0.002 µM in experiment [2] turned out to be 92%.
For `O=C(NCc1ccncc1)c1ccccc1Nc1ccc2c(/C=C/c3ccccn3)n[nH]c2c1`, in that order: 34% and 58%.
The matching figures for `CS(=O)(=O)NNC(=O)c1ccccc1Nc1ccc2c(/C=C/c3ccccn3)n[nH]c2c1`: 9% and 1%.
For `CC1CC(NC(=O)c2ccccc2Nc2ccc3c(/C=C/c4ccccn4)n[nH]c3c2)CC(C)(C)C1` (centres undefined), in that order: 25% and 31%.
With `O=C(N[C@H](CO)Cc1c[nH]cn1)c1ccccc1Nc1ccc2c(/C=C/c3ccccn3)n[nH]c2c1`, the inhibition at 0.0005 µM in experiment [1] turned out to be 22%. The inhibition at 0.002 µM in experiment [2] is 24%.
For `O=C(NCCc1c[nH]cn1)c1ccccc1Nc1ccc2c(/C=C/c3ccccn3)n[nH]c2c1`, in that order: 23% and -32%.
For `O=C(NNC(=O)c1ccccc1Nc1ccc2c(/C=C/c3ccccn3)n[nH]c2c1)c1ccc[nH]1`, in that order: 60% and 99%.
Consider `C=C(C)CNC(=O)c1ccccc1Nc1ccc2c(/C=C/c3ccccn3)n[nH]c2c1`, for which the inhibition at 0.0005 µM in experiment [1] was 65%. Besides, the inhibition at 0.002 µM in experiment [2] came to 110%.
The matching figures for `CC(C)(C)c1cc(NC(=O)c2ccccc2Nc2ccc3c(/C=C/c4ccccn4)n[nH]c3c2)no1`: 15% and 4%.
For `O=C(NNCC(F)(F)F)c1ccccc1Nc1ccc2c(/C=C/c3ccccn3)n[nH]c2c1`, in that order: 16% and 42%.
For `O=C1CSC(NC(=O)c2ccccc2Nc2ccc3c(/C=C/c4ccccn4)n[nH]c3c2)=N1`, in that order: 9% and -9%.
For `O=C(CNC(=O)c1ccccc1Nc1ccc2c(/C=C/c3ccccn3)n[nH]c2c1)NO`, the inhibition at 0.0005 µM in experiment [1] amounted to 5%. The inhibition at 0.002 µM in experiment [2] was found to be 9%.
For `CSCCCNC(=O)c1ccccc1Nc1ccc2c(/C=C/c3ccccn3)n[nH]c2c1`, in that order: 44% and 100%.
For `CCCCC(CC)NC(=O)c1ccccc1Nc1ccc2c(/C=C/c3ccccn3)n[nH]c2c1` (centres undefined), in that order: 31% and 30%.
The matching figures for `CN(C)NC(=O)c1ccccc1Nc1ccc2c(/C=C/c3ccccn3)n[nH]c2c1`: 31% and 20%.
For `CC1CCCC(NC(=O)c2ccccc2Nc2ccc3c(/C=C/c4ccccn4)n[nH]c3c2)C1` (centres undefined), the inhibition at 0.0005 µM in experiment [1] is 69%. Besides, in experiment [2], the inhibition at 0.002 µM turned out to be 59%.
For `O=C(NCCOCCO)c1ccccc1Nc1ccc2c(/C=C/c3ccccn3)n[nH]c2c1`, in that order: 10% and 24%.
The matching figures for `O=C(O)CNC(=O)CCNC(=O)c1ccccc1Nc1ccc2c(/C=C/c3ccccn3)n[nH]c2c1`: 49% and -9%.
The matching figures for `NC(=O)c1ccccc1Nc1ccc2c(/C=C/c3ccccn3)n[nH]c2c1`: 9% and 30%.
As to `O=C(NCCCCc1ccccc1)c1ccccc1Nc1ccc2c(/C=C/c3ccccn3)n[nH]c2c1`, the inhibition at 0.0005 µM in experiment [1] is 51%. Also, in experiment [2], the inhibition at 0.002 µM came out at 67%.
The matching figures for `O=C(NC1OCCO1)c1ccccc1Nc1ccc2c(/C=C/c3ccccn3)n[nH]c2c1`: 35% and 63%.
For `O=C(NCCN(CCO)CCO)c1ccccc1Nc1ccc2c(/C=C/c3ccccn3)n[nH]c2c1`, in that order: 10% and 23%.
For `O=C(N[C@H]1CC[C@H](O)CC1)c1ccccc1Nc1ccc2c(/C=C/c3ccccn3)n[nH]c2c1`, in that order: 23% and 6%.
Regarding `O=C(NN1CCCC1)c1ccccc1Nc1ccc2c(/C=C/c3ccccn3)n[nH]c2c1`, the inhibition at 0.0005 µM in experiment [1] is 17%. The inhibition at 0.002 µM in experiment [2] is 23%.
For the molecule `O=C(NNC(=O)c1ccccc1Nc1ccc2c(/C=C/c3ccccn3)n[nH]c2c1)c1cccs1`, in experiment [1], the inhibition at 0.0005 µM is 65%. Further, the inhibition at 0.002 µM in experiment [2] was determined as 90%.
The matching figures for `CCN(CCNC(=O)c1ccccc1Nc1ccc2c(/C=C/c3ccccn3)n[nH]c2c1)c1cccc(C)c1`: 17% and 1%.
The matching figures for `O=C(NCS(=O)(=O)O)c1ccccc1Nc1ccc2c(/C=C/c3ccccn3)n[nH]c2c1`: 2% and -3%.
The matching figures for `CN(C)CC(=O)NNC(=O)c1ccccc1Nc1ccc2c(/C=C/c3ccccn3)n[nH]c2c1`: 41% and 16%.
With `O=C(NCc1cccc(F)c1)c1ccccc1Nc1ccc2c(/C=C/c3ccccn3)n[nH]c2c1`, in experiment [1], the inhibition at 0.0005 µM came to 81%. Moreover, the inhibition at 0.002 µM in experiment [2] came out at 95%.
For `CCC(C)NC(=O)c1ccccc1Nc1ccc2c(/C=C/c3ccccn3)n[nH]c2c1` (centres undefined), in that order: 29% and 58%.
For the molecule `CC(CCc1ccccc1)NC(=O)c1ccccc1Nc1ccc2c(/C=C/c3ccccn3)n[nH]c2c1` (centres undefined), in experiment [1], the inhibition at 0.0005 µM is 50%. The inhibition at 0.002 µM in experiment [2] turned out to be 40%.
The matching figures for `Cc1ccc(CNC(=O)c2ccccc2Nc2ccc3c(/C=C/c4ccccn4)n[nH]c3c2)o1`: 56% and 96%.
Consider `O=C(NC1CCS(=O)(=O)C1)c1ccccc1Nc1ccc2c(/C=C/c3ccccn3)n[nH]c2c1` (centres undefined), for which, in experiment [1], the inhibition at 0.0005 µM worked out at 27%. The inhibition at 0.002 µM in experiment [2] turned out to be 2%.
`O=C(NCCCN1CCCC1)c1ccccc1Nc1ccc2c(/C=C/c3ccccn3)n[nH]c2c1`: the inhibition at 0.0005 µM in experiment [1] came to 20%. The inhibition at 0.002 µM in experiment [2] is 2%.
The matching figures for `Cc1ccc(N(C)NC(=O)c2ccccc2Nc2ccc3c(/C=C/c4ccccn4)n[nH]c3c2)nn1`: 18% and -3%.
For the molecule `O=C(O)CCNC(=O)c1ccccc1Nc1ccc2c(/C=C/c3ccccn3)n[nH]c2c1`, the inhibition at 0.0005 µM in experiment [1] was 4%. Moreover, the inhibition at 0.002 µM in experiment [2] is 20%.
The matching figures for `NS(=O)(=O)c1ccc(CCNC(=O)c2ccccc2Nc2ccc3c(/C=C/c4ccccn4)n[nH]c3c2)cc1`: 26% and 37%.
The matching figures for `CC(C)CC(C)NC(=O)c1ccccc1Nc1ccc2c(/C=C/c3ccccn3)n[nH]c2c1` (centres undefined): 55% and 50%.
For `C[C@H](CO)NC(=O)c1ccccc1Nc1ccc2c(/C=C/c3ccccn3)n[nH]c2c1`, in that order: 13% and 20%.
Regarding `Cc1cc(NC(=O)c2ccccc2Nc2ccc3c(/C=C/c4ccccn4)n[nH]c3c2)n(C)n1`, the inhibition at 0.0005 µM in experiment [1] was determined as 39%. In experiment [2], the inhibition at 0.002 µM worked out at 13%.
For `CN(C)CCCCCCNC(=O)c1ccccc1Nc1ccc2c(/C=C/c3ccccn3)n[nH]c2c1`, in that order: 42% and 22%.
The matching figures for `CN(C)c1ccc(CNC(=O)c2ccccc2Nc2ccc3c(/C=C/c4ccccn4)n[nH]c3c2)cc1`: 32% and 24%.
As to `O=C(Nc1nccs1)c1ccccc1Nc1ccc2c(/C=C/c3ccccn3)n[nH]c2c1`, the inhibition at 0.0005 µM in experiment [1] came to 33%. Besides, the inhibition at 0.002 µM in experiment [2] came out at 94%.
The matching figures for `O=C(NC1CCc2ccccc21)c1ccccc1Nc1ccc2c(/C=C/c3ccccn3)n[nH]c2c1` (centres undefined): 19% and 86%.
The matching figures for `N#CCNC(=O)c1ccccc1Nc1ccc2c(/C=C/c3ccccn3)n[nH]c2c1`: 18% and 40%.
Regarding `O=C(NCCc1ccccn1)c1ccccc1Nc1ccc2c(/C=C/c3ccccn3)n[nH]c2c1`, the inhibition at 0.0005 µM in experiment [1] was 49%. Besides, the inhibition at 0.002 µM in experiment [2] worked out at 91%.
For `CC(C)C(CO)NC(=O)c1ccccc1Nc1ccc2c(/C=C/c3ccccn3)n[nH]c2c1` (centres undefined), in that order: 21% and -5%.
For `N#CCONC(=O)c1ccccc1Nc1ccc2c(/C=C/c3ccccn3)n[nH]c2c1`, in that order: 16% and 2%.
For `CC(O)CNC(=O)c1ccccc1Nc1ccc2c(/C=C/c3ccccn3)n[nH]c2c1` (centres undefined), in that order: 38% and 2%.

The values are drawn from ChEMBL document CHEMBL3880421, “Indazole compounds and pharmaceutical compositions for inhibiting protein kinases, and methods for their use” (2003).
